Legend:
[1] = species on record: Rattus norvegicus; test: Selectivity ratio of […] in rat corpus striatum; format: tissue-based
[2] = molecular target: D(1A) dopamine receptor (Rattus norvegicus, UniProt P18901); test: Displacement of [3H]SCH23390 from dopamine D1 receptor in rat corpus striatum
[3] = molecular target: T1, 5-hydroxytryptamine receptor 1A (Rattus norvegicus, UniProt P19327); test: Displacement of [3H]8-OH-DPAT from Serotonin 5-HT1A receptor in rat corpus striatum
T1 sequence (P19327 whole entry): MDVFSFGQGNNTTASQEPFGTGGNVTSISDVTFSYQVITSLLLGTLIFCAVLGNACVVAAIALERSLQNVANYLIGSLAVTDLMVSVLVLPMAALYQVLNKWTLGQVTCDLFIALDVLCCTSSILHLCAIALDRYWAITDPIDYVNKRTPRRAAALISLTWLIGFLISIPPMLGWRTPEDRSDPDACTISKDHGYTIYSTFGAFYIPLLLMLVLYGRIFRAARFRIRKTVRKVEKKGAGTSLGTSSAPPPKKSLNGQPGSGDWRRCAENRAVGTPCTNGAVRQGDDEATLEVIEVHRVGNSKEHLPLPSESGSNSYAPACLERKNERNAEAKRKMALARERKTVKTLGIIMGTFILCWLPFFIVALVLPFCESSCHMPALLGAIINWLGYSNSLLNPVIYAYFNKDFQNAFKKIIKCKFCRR

[4] = molecular target: D(2) dopamine receptor (Rattus norvegicus, UniProt P61169); test: Displacement of [3H]neomonapride from dopamine D2 receptor in rat corpus striatum
Sequence of D(2) dopamine receptor (P61169 whole entry): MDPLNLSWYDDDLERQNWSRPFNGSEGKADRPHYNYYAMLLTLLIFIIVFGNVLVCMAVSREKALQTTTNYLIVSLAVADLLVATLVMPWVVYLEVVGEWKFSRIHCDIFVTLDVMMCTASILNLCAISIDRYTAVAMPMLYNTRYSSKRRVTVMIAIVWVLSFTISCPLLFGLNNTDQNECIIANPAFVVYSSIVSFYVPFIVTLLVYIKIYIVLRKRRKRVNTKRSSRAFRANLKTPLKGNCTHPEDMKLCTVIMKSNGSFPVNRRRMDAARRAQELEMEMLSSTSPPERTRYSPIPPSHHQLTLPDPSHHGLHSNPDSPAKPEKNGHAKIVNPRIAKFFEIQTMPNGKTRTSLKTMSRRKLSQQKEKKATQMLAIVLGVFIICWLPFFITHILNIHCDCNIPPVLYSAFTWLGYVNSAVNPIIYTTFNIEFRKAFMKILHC

Sequence of D(1A) dopamine receptor (P18901 whole entry): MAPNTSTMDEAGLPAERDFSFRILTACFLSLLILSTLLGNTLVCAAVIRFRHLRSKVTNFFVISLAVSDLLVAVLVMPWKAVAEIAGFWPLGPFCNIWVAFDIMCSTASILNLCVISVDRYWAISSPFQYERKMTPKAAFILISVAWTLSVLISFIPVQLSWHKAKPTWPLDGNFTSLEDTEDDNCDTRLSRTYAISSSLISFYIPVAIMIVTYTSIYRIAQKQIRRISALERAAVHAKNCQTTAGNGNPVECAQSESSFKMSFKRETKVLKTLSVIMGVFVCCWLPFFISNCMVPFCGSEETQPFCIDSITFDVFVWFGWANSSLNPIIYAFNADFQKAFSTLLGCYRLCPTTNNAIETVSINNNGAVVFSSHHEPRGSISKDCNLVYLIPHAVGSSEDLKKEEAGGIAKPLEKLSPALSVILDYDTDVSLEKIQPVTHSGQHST

Row | SMILES | Ratio [1] | Ki [2] [µM] | Ki [3] [µM] | Ki [4] [µM]
1 | CN1CCc2cc(O)cc3c2[C@H]1Cc1cccc(OCCO)c1-3 | 3 | > 10 | 0.289 | 3.34
2 | CCOc1cccc2c1-c1cc(O)cc3c1[C@@H](C2)N(C)CC3 | 5.7 | 3.68 | 0.432 | 0.641
3 | CCCN1CCc2cc(OCCO)cc3c2[C@H]1Cc1cccc(O)c1-3 | > 103 | > 10 | – | 0.097
4 | CCCN1CCc2cc(OC)cc3c2[C@H]1Cc1ccccc1-3 | – | > 10 | 1.6 | –
5 | COc1cc2c3c(c1)-c1ccccc1C[C@H]3N(C)CC2 | 1.8 | 1.3 | 2.66 | 0.731
6 | CCCOc1cccc2c1-c1cc(O)cc3c1[C@@H](C2)N(C)CC3 | – | 1.81 | – | –

Reference: ChEMBL document CHEMBL1155098, “Synthesis and binding studies of 2-O- and 11-O-substituted N-alkylnoraporphines” (Bioorg Med Chem Lett, 2008)
